From PubChem BioAssay AID330 (DTP/NCI, 2004)
Where “and” joins values, the source holds several entries; their conditions need not be identical. Equal entries are not always repeated. Toxic doses and inconclusive results are not listed. Rule for the calls: active = survival T/C of 150% or more; inactive = T/C below 125% in these data.

System: P388 leukemia ip, CD2F1 mice, survival T/C
Test: NCI In Vivo Anticancer Drug Screen. Data for tumor model P388 Leukemia (intraperitoneal) in CD2F1 (CDF1) mice
Details: endpoint: median survival time, higher = longer survival
Procedure, shortened: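 Mice carrying the transplanted tumor received test compound or vehicle. Survival was recorded in each group, and the value is the treated-group measurement divided by that of the vehicle-treated control group.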

[1] = dose: 12.5 mg/kg/injection, schedule: Q01DX005 (ip), vehicle: saline with Tween-80
[2] = dose: 25.0 mg/kg/injection, schedule: Q01DX005 (ip), vehicle: saline with Tween-80
[3] = dose: 50.0 mg/kg/injection, schedule: Q01DX005 (ip), vehicle: saline with Tween-80
[4] = dose: 100.0 mg/kg/injection, schedule: Q01DX005 (ip), vehicle: saline with Tween-80
[5] = dose: 60.0 mg/kg/injection, schedule: Q01DX005 (ip), vehicle: saline with Tween-80
[6] = dose: 120.0 mg/kg/injection, schedule: Q01DX005 (ip), vehicle: saline with Tween-80
[7] = dose: 240.0 mg/kg/injection, schedule: Q01DX005 (ip), vehicle: saline with Tween-80
[8] = dose: 50.0 mg/kg/injection, schedule: Q01DX009 (ip), vehicle: saline with Tween-80
[9] = dose: 60.0 mg/kg/injection, schedule: Q01DX005 (ip), vehicle: Klucel (hydroxypropylcellulose) (HPC)
[10] = dose: 120.0 mg/kg/injection, schedule: Q01DX005 (ip), vehicle: Klucel (hydroxypropylcellulose) (HPC)
[11] = dose: 240.0 mg/kg/injection, schedule: Q01DX005 (ip), vehicle: Klucel (hydroxypropylcellulose) (HPC)
[12] = dose: 12.5 mg/kg/injection, schedule: Q01DX009 (ip), vehicle: saline with Tween-80
[13] = dose: 50.0 mg/kg/injection, schedule: Q01DX009 (ip), vehicle: saline
[14] = dose: 100.0 mg/kg/injection, schedule: Q01DX009 (ip), vehicle: saline
[15] = dose: 200.0 mg/kg/injection, schedule: Q01DX009 (ip), vehicle: saline

Measured: T/C

CC1OC(c2ccc3c(c2O)C(=O)c2ccc(CC(C)(O)CC(=O)O)cc2C3=O)CC(O)C1O (stereo not given)
inactive: [1] 90 % of control | [2] 93 % of control | [3] 96 % of control | dose: 100.0 mg/kg/injection, schedule: Q01DX005 (ip), vehicle: suspension in saline 110 % of control | dose: 200.0 mg/kg/injection, schedule: Q01DX005 (ip), vehicle: suspension in saline 101 % of control

CC1(C)C2CCC1(CS(=O)O)C(=O)C2.[Ag] (stereo not given)
inactive: [3] 111 % of control | [4] 105 % of control

CCOC(=O)NNS(=O)(=O)CCC(N)C(=O)O (stereo not given)
inactive: dose: 12.5 mg/kg/injection, schedule: Q01DX009 (ip), vehicle: water 98 % of control | dose: 25.0 mg/kg/injection, schedule: Q01DX009 (ip), vehicle: water 88 % of control and 95 % of control | dose: 50.0 mg/kg/injection, schedule: Q01DX009 (ip), vehicle: water 87 % of control and 90 % of control | dose: 100.0 mg/kg/injection, schedule: Q01DX009 (ip), vehicle: water 93 % of control | dose: 200.0 mg/kg/injection, schedule: Q01DX009 (ip), vehicle: water 109 % of control and 86 % of control | dose: 400.0 mg/kg/injection, schedule: Q01DX009 (ip), vehicle: water 111 % of control

CC1(C)CC(=O)N(CN2CCOCC2)C(=O)C1
inactive: dose: 60.0 mg/kg/injection, schedule: Q01DX005 (ip), vehicle: saline 100 % of control | dose: 120.0 mg/kg/injection, schedule: Q01DX005 (ip), vehicle: saline 100 % of control | dose: 240.0 mg/kg/injection, schedule: Q01DX005 (ip), vehicle: saline 110 % of control

O=c1c2cc3c(=O)n(CO)c(=O)c3cc2c(=O)n1CO
inactive: [5] 118 % of control | [6] 120 % of control | [7] 121 % of control

CC1=NN(C(=O)c2ccncc2)C(=O)C1N=Nc1ccc(S(=O)(=O)Nc2ncccn2)cc1 (stereo not given)
inactive: [8] 95 % of control | dose: 100.0 mg/kg/injection, schedule: Q01DX009 (ip), vehicle: saline with Tween-80 91 % of control | dose: 200.0 mg/kg/injection, schedule: Q01DX009 (ip), vehicle: saline with Tween-80 92 % of control

Cc1csc(N)n1
inactive: dose: 100.0 mg/kg/injection, schedule: Q04DX002 (ip), vehicle: saline 97 % of control | dose: 200.0 mg/kg/injection, schedule: Q04DX002 (ip), vehicle: saline 95 % of control | dose: 400.0 mg/kg/injection, schedule: Q04DX002 (ip), vehicle: saline 101 % of control

O=P(c1ccccc1)(c1ccccc1)c1ccccc1.O=P(c1ccccc1)(c1ccccc1)c1ccccc1.O=P(c1ccccc1)(c1ccccc1)c1ccccc1.O=P(c1ccccc1)(c1ccccc1)c1ccccc1.[Ce+3].[O-][Cl+3]([O-])([O-])O
inactive: dose: 50.0 mg/kg/injection, schedule: Q01DX009 (ip), vehicle: saline + Tween-80 + alcohol 96 % of control | dose: 100.0 mg/kg/injection, schedule: Q01DX009 (ip), vehicle: saline + Tween-80 + alcohol 89 % of control | dose: 200.0 mg/kg/injection, schedule: Q01DX009 (ip), vehicle: saline + Tween-80 + alcohol 87 % of control

CC1(C)OC(=O)C(=CN(C2CCCCC2)C2CCCCC2)C(=O)O1
inactive: [9] 96 % of control | [10] 86 % of control

COC(=O)C1(C2CCc3cc(OC)ccc3C2=O)NC(=S)NC(=O)C1C#N (stereo not given)
inactive: dose: 7.5 mg/kg/injection, schedule: Q01DX005 (ip), vehicle: saline with Tween-80 96 % of control | dose: 15.0 mg/kg/injection, schedule: Q01DX005 (ip), vehicle: saline with Tween-80 97 % of control | dose: 30.0 mg/kg/injection, schedule: Q01DX005 (ip), vehicle: saline with Tween-80 93 % of control

C1=CC2CC1CC2[P+](c1ccccc1)(c1ccccc1)c1ccccc1 (stereo not given)
inactive: dose: 12.5 mg/kg/injection, schedule: Q01DX001 (ip), vehicle: saline 102 % of control | dose: 25.0 mg/kg/injection, schedule: Q01DX001 (ip), vehicle: saline 115 % of control | dose: 50.0 mg/kg/injection, schedule: Q01DX001 (ip), vehicle: saline 97 % of control

CO/N=C(\N)NC(=O)Cc1c(Cl)cccc1Cl
inactive: dose: 6.25 mg/kg/injection, schedule: Q01DX005 (ip), vehicle: Klucel (hydroxypropylcellulose) (HPC) 94 % of control | dose: 12.5 mg/kg/injection, schedule: Q01DX005 (ip), vehicle: Klucel (hydroxypropylcellulose) (HPC) 98 % of control | dose: 25.0 mg/kg/injection, schedule: Q01DX005 (ip), vehicle: Klucel (hydroxypropylcellulose) (HPC) 100 % of control and 101 % of control | dose: 50.0 mg/kg/injection, schedule: Q01DX005 (ip), vehicle: Klucel (hydroxypropylcellulose) (HPC) 103 % of control and 90 % of control | dose: 100.0 mg/kg/injection, schedule: Q01DX005 (ip), vehicle: Klucel (hydroxypropylcellulose) (HPC) 100 % of control

O=C1CSC(c2ccc(Cl)c([N+](=O)[O-])c2)N1c1nncs1 (stereo not given)
inactive: [9] 99 % of control | [10] 100 % of control | [11] 97 % of control

C#CCOc1ccc(Cl)cc1[N+](=O)[O-]
inactive: dose: 50.0 mg/kg/injection, schedule: Q01DX009 (ip), vehicle: Klucel (hydroxypropylcellulose) (HPC) 100 % of control | dose: 100.0 mg/kg/injection, schedule: Q01DX009 (ip), vehicle: Klucel (hydroxypropylcellulose) (HPC) 99 % of control | dose: 200.0 mg/kg/injection, schedule: Q01DX009 (ip), vehicle: Klucel (hydroxypropylcellulose) (HPC) 104 % of control

Nc1nc(Cc2ccccc2)c(-c2ccccc2)c(-c2nc(N)nc(Cc3ccccc3)c2-c2ccccc2)n1
inactive: [5] 100 % of control | [6] 105 % of control | [7] 99 % of control

COc1ccc2c(=O)cc(-c3ccccc3)sc2c1
inactive: [9] 106 % of control | [10] 104 % of control | [11] 98 % of control

COc1ccc(CCNc2ccc(NCCc3ccc(OC)c(OC)c3)c3c2C(=O)c2ccccc2C3=O)cc1OC
inactive: dose: 25.0 mg/kg/injection, schedule: Q01DX009 (ip), vehicle: other 88 % of control | dose: 50.0 mg/kg/injection, schedule: Q01DX009 (ip), vehicle: other 88 % of control | dose: 200.0 mg/kg/injection, schedule: Q01DX009 (ip), vehicle: other 101 % of control | dose: 400.0 mg/kg/injection, schedule: Q01DX009 (ip), vehicle: other 91 % of control

CN(C)c1ccc(/C=C\C(=O)c2ccc(C(=O)/C=C/c3ccc(N(C)C)cc3)cc2)cc1
inactive: [12] 99 % of control | dose: 25.0 mg/kg/injection, schedule: Q01DX009 (ip), vehicle: saline with Tween-80 96 % of control | [8] 90 % of control

O=C(OCCN1CCN(CCOC(=O)C(Cl)(c2ccccc2)c2ccccc2)CC1)C(Cl)(c1ccccc1)c1ccccc1
inactive: dose: 6.25 mg/kg/injection, schedule: Q01DX005 (ip), vehicle: saline with Tween-80 95 % of control | [1] 93 % of control | [2] 95 % of control | [4] 90 % of control

O=C(NC(Cc1ccccc1)C(=O)O)c1cccnc1 (stereo not given)
inactive: dose: 25.0 mg/kg/injection, schedule: Q04DX002 (ip), vehicle: Klucel (hydroxypropylcellulose) (HPC) 100 % of control | dose: 52.0 mg/kg/injection, schedule: Q04DX002 (ip), vehicle: Klucel (hydroxypropylcellulose) (HPC) 102 % of control | dose: 100.0 mg/kg/injection, schedule: Q04DX002 (ip), vehicle: Klucel (hydroxypropylcellulose) (HPC) 96 % of control | dose: 200.0 mg/kg/injection, schedule: Q04DX002 (ip), vehicle: Klucel (hydroxypropylcellulose) (HPC) 100 % of control

CN(C)CCCN=c1c2ccccc2n(O)c2cccc([N+](=O)[O-])c12
inactive: dose: 1.56 mg/kg/injection, schedule: Q01DX009 (ip), vehicle: saline with Tween-80 123 % of control | dose: 3.12 mg/kg/injection, schedule: Q01DX009 (ip), vehicle: saline 117 % of control | [12] 104 % of control

O=C1OC2CSCC2O1 (stereo not given)
inactive: [13] 96 % of control | [14] 104 % of control | [15] 101 % of control

CCOC(=O)CC/C(=C/c1cccc2cc(OC)ccc12)[N+](=O)[O-]
inactive: dose: 50.0 mg/kg/injection, schedule: Q01DX001 (ip), vehicle: Klucel (hydroxypropylcellulose) (HPC) 100 % of control | dose: 100.0 mg/kg/injection, schedule: Q01DX001 (ip), vehicle: Klucel (hydroxypropylcellulose) (HPC) 101 % of control | dose: 200.0 mg/kg/injection, schedule: Q01DX001 (ip), vehicle: Klucel (hydroxypropylcellulose) (HPC) 104 % of control

C1=CC2C=CC1C2c1ccccc1 (stereo not given)
inactive: [13] 108 % of control and 86 % of control | [14] 105 % of control and 111 % of control | [15] 116 % of control and 98 % of control
